According to ChEMBL document CHEMBL1147590, “Synthesis and antitumor activity of s-tetrazine derivatives” (Bioorg Med Chem Lett, 2004):

Assays:
A549 [1] = assay: In vitro rate of inhibition of A-549 tumor cell growth at 10E-6 mol/L; format: functional, Homo sapiens; conditions: at 1 µM
A549 [2] = assay: In vitro rate of inhibition of A-549 tumor cell growth at 10E-8 mol/L; format: functional, Homo sapiens; conditions: at 0.01 µM
A549 [3] = assay: In vitro rate of inhibition of A-549 tumor cell growth at 10E-5 mol/L; format: functional, Homo sapiens; conditions: at 10 µM
P388 [4] = assay: In vitro rate of inhibition of P388 tumor cell growth at 10E-5 mol/L; format: functional, Mus musculus; conditions: at 10 µM
P388 [5] = assay: In vitro rate of inhibition of P388 tumor cell growth at 10E-6 mol/L; format: functional, Mus musculus; conditions: at 1 µM
A549 [6] = assay: In vitro rate of inhibition of A-549 tumor cell growth at 10E-4 mol/L; format: functional, Homo sapiens; conditions: at 100 µM
A549 [7] = assay: In vitro rate of inhibition of A-549 tumor cell growth at 10E-7 mol/L; format: functional, Homo sapiens; conditions: at 0.1 µM
P388 [8] = assay: In vitro rate of inhibition of P388 tumor cell growth at 10E-7 mol/L; format: functional, Mus musculus; conditions: at 0.1 µM
P388 [9] = assay: In vitro rate of inhibition of P388 tumor cell growth at 10E-8 mol/L; format: functional, Mus musculus; conditions: at 0.01 µM
P388 [10] = assay: In vitro rate of inhibition of P388 tumor cell growth at 10E-4 mol/L; format: functional, Mus musculus; conditions: at 100 µM

Row | SMILES | Rate of inhibition (A549 [1]) [%] | Rate of inhibition (A549 [2]) [%] | Rate of inhibition (A549 [3]) [%] | Rate of inhibition (P388 [4]) [%] | Rate of inhibition (P388 [5]) [%] | Rate of inhibition (A549 [6]) [%] | Rate of inhibition (A549 [7]) [%] | Rate of inhibition (P388 [8]) [%] | Rate of inhibition (P388 [9]) [%] | Rate of inhibition (P388 [10]) [%]
1 | CCCCCCCCCCCCC/C=C/[C@@H](O)[C@H](CO)NC(C)=O | 6.2 | 12.3 | 9.2 | 4.7 | 3.1 | 24.6 | 7.7 | 3.1 | 0 | 73.4
2 | COc1cc(NC(=O)N2N=C(C)N(C(=O)Nc3cc(OC)cc(OC)c3)N=C2C)cc(OC)c1 | 77.3 | 26.1 | 79.3 | 88.8 | 88.9 | 87.5 | 75 | 90.7 | 73.1 | 94.4
3 | CCOC(=O)N1C(c2ccccc2)=NN=C(c2ccccc2)N1C(=O)OCC | 0 | 0 | 10.8 | 35.6 | 7 | 95.3 | 0 | 4.9 | 2.8 | 93.9
4 | CCCC1=NN(C(=O)OC)C(CCC)N=N1 (stereo not given) | 0 | 0 | 0 | 17.3 | 4.5 | 59.6 | 0 | 1.7 | 3.3 | 90.4
5 | CCOC(=O)c1ccc(NC(=O)N2N=C(C)N(C(=O)Nc3ccc(C(=O)OCC)cc3)N=C2C)cc1 | 0 | 0 | 28.8 | 25.4 | 1.6 | 27.3 | 0 | 0 | 0 | 63.5
6 | Clc1ccc(Cc2nnc(Cc3ccc(Cl)cc3)nn2)cc1 | 13.1 | 8.7 | 57.1 | 29.1 | 9.3 | 65.8 | 1.1 | 8.9 | 0 | 58.4
7 | COc1cccc(NC(=O)N2N=C(C)N(C(=O)Nc3cccc(OC)c3)N=C2C)c1 | 84.6 | 86.2 | 86.2 | 93.8 | 93.8 | 87.7 | 89.2 | 95.2 | 92.2 | 95.3
8 | CCCCCOC(=O)N1N=C(CCC)N=NC1CCC (stereo not given) | 2.3 | 2.5 | 0.7 | 7.7 | 5.6 | 0 | 0 | 0 | 0 | 32.8
9 | CCCC1NN(C(C)=O)C(CCC)NN1C(C)=O (stereo not given) | 4 | 0 | 8.6 | 5.5 | 3.2 | 59.8 | 1.2 | 3.1 | 0 | 38.5
10 | CC1=NN(C(=O)Nc2ccccc2Cl)C(C)=NN1C(=O)Nc1ccccc1Cl | 0 | 0 | 0 | 41.3 | 1.6 | 28.8 | 0 | 0 | 0 | 90.5
11 | Clc1cccc(-c2nnc(-c3cccc(Cl)c3)nn2)c1 | 0 | 0 | 0 | 26.5 | 33.2 | 0 | 0 | 13.5 | 4.3 | 40.3
12 | Cc1ccc(-c2nnc(-c3ccc(C)cc3)nn2)cc1 | 0 | 0 | 17 | 8.3 | 4.4 | 90.3 | 0 | 2.4 | 4.5 | 56.4
13 | CCCC1=NN(C(=O)Nc2cccc(Cl)c2)C(CCC)=NN1C(=O)Nc1cccc(Cl)c1 | 59.6 | 0 | 88.4 | 58.7 | 0 | 91.3 | 10.8 | 0 | 0 | 84.4
14 | CC1=NN(C(=O)Nc2cccc(Cl)c2)C(C)=NN1C(=O)Nc1cccc(Cl)c1 | 0 | 0 | 7.6 | 29.7 | 6.3 | 21.2 | 0 | 0 | 0 | 85.9
15 | CC1=NN(C(=O)OCCC(C)C)C(C)N=N1 (stereo not given) | 0 | 0 | 0 | 17.8 | 13.6 | 0 | 0 | 0.8 | 0 | 28.8
16 | CC(=O)N1N=C(c2ccccc2)NN=C1c1ccccc1 | 0 | 0 | 0 | 10.9 | 6.6 | 85.1 | 0 | 5.5 | 9.2 | 62.7
17 | CC1=NN(C(=O)Oc2ccccc2)C(C)N=N1 (stereo not given) | 0 | 0 | 0 | 27.9 | 13.6 | 32.1 | 0 | 1.2 | 0 | 85.3
18 | CCCC1=NN(C(=O)Nc2cccc(C)c2)C(CCC)=NN1C(=O)Nc1cccc(C)c1 | 74.1 | 0 | 84.2 | 63.9 | 0 | 93.3 | 4 | 4.8 | 0 | 81.6
19 | CCOC(=O)c1cccc(NC(=O)N2N=C(C)N(C(=O)Nc3cccc(C(=O)OCC)c3)N=C2C)c1 | 6.8 | 1.1 | 12.5 | 0 | 0 | 67 | 5.7 | 0 | 0 | 46.3
20 | CCC1=NN(C(=O)Nc2cccc(C)c2)C(CC)=NN1C(=O)Nc1cccc(C)c1 | 81.1 | 1.6 | 84.1 | 63.5 | 0 | 90.4 | 16.7 | 0 | 0 | 91.6
21 | Clc1ccc(-c2nnc(-c3ccc(Cl)cc3)nn2)cc1 | 0 | 0 | 0 | 35.1 | 29 | 0 | 0 | 19.4 | 16.1 | 52.3
22 | CCCCC1NN(C(C)=O)C(CCCC)NN1C(C)=O (stereo not given) | 6.4 | 0 | 13.1 | 0 | 0 | 47.6 | 4.8 | 0 | 0 | 37.9
23 | CCCOC(=O)N1C(c2ccccc2)=NN=C(c2ccccc2)N1C(=O)OCCC | 0.5 | 0 | 29.8 | 54.8 | 4.5 | 23.4 | 0 | 4.3 | 2.5 | 80.9
24 | COc1ccccc1NC(=O)N1N=C(C)N(C(=O)Nc2ccccc2OC)N=C1C | 0 | 0 | 0 | 17.2 | 1.6 | 80 | 0 | 0 | 0 | 59.4
